These are literature values, as cited in patent publication US20250131989A1, “LABORATORY CALIBRATION SYSTEM OF MATERIALS FOR USAGE IN SIMULATIONS AND FORECAST OF DISSOLUTION, DISINTEGRATION, DIFFUSION, COMPRESSION, DEFORMATION AND OTHER RELATED MATERIAL PROPERTIES AND CORRESPONDING METHOD THEREOF” (CINCAP GMBH, priority 2021, published 2025).

For series [1] the following is noted: key 7 (solubility vs. pH data point); example JSON database record, producer CINCAP.
For series [2] the following is noted: example JSON database record, producer CINCAP.

On to `Cn1c(=O)c2[nH]cnc2n(C)c1=O` [Theophilline], for which the solubility entry in series [1] was ““solubility”:[{“key”:7, “value”:7.36}],”. Also, the diffusivity entry in series [2] is ““diffusivity”:6.16e−10,”.
